# Experimental data published in patent publication US7906515B2, “Cancer treatment with topoisomerase-II inhibitor, a bis-dioxypiperazine and radiation” (Topotarget A/S, priority 2004, dated 2011).
# Entries after “also recorded” stand apart in the source; their conditions may differ. Like-named read-outs stand apart in the source and are kept apart here.
# Experiments:
# [1] = Histological evaluation of the blood brain barrier and blood tumour barrier by dye staining; type: in vivo; conditions: day 3 after tumour implantation; 5 mice per dye
# Method: Following anaesthesia by hypnorm/dormicum 25 uL of Evans Blue Dye or 80 uL of Lissamine Green was administered by a tail-vein. After allowing the dye to circulate, animals were perfused transcardially with a 4% formalin solution for 5 minutes. The brain was kept in formalin 4%, and […] thick slices were cut on a vibratome and evaluated visually for staining. A check for positive stain of organs was performed before inclusion of the animal in the evaluation of staining of the brain and tumour. Evans Blue Dye and Lissamine Green were obtained from Sigma-Aldrich (Vallensbaek, DK) and prepared fresh as a 2% solution in isotonic saline.
# (§1) Experiments with Evans blue dye, Lissamine Green and 3H-etoposide were done on day 3, with preparations as described for treatment efficacy experiments.
# [2] = tested on: Ehrlich Ascites tumour cells; test: Treatment efficacy: survival of mice with intracerebrally implanted Ehrlich Ascites tumour; type: in vivo, B6D2F1 female mice
# Method: B6D2F1 female mice from Taconic M&B (Ry, Denmark) were housed in cages of 9 with free access to water and Altromi laboratory diet from Brogaarden (Gentofte, DK). They weighed 19-22 grams at inclusion in protocol. Animals that deteriorated clinically during the experiment were euthanised, and the experiments were approved by the Danish Animal Experimentation Inspectorate.
# A total of 15×10^4 Ehrlich Ascites tumour cells in 30 uL saline were implanted into the right temporal hemisphere during short CO2 anaesthesia on day 0 and treated on day 3. Treatment was scheduled as follows: dexrazoxane at t=0, etoposide at t=20 minutes and radiation treatment at t=50 minutes. Before the radiotherapy procedure a light anaesthesia was administered, to achieve compliance.
# This way we obtained a simple and reliable method of comparison.
# Efficacy of chemoradiotherapy compared to radiotherapy alone was calculated as: […]
# Median survival after chemotherapy compared to radiotherapy alone was calculated as:
# The absolute numeric difference in median survival time after chemotherapy alone compared to radiotherapy alone was simply calculated as: Difference in survival (days)=MS radiotherapy−MS chemotherapy Eq. 3)
# Survival times within the separate experimental treatment groups were compiled, and presented in Kaplan-Meier plots. P-values from Logrank tests comparing survival in experimental groups compared to radiotherapy alone are shown.
# The dose-rate was 4.7 Gy/minute.
# Dexrazoxane (Zinecard®) was obtained from Pharmacia (Kalamazoo, Mich.) and further diluted in Ringer-lactate. Etoposide (Vepesid™) was obtained as a ready to administer liquid solution from Pharmacia A/S (Copenhagen, DK) and diluted to final concentration in isotonic saline. 3H-etoposide was obtained from Moravek (Calif., USA) and kept at −20° C. All drugs were administered by the intra-peritoneal (ip.) route.
# [3] = tested on: Ehrlich Ascites tumour cells; test: Clonogenic survival in soft agar after drug with or without concurrent radiotherapy; conditions: for Cell-kill interaction of etoposide with radiotherapy: increasing concentrations of etoposide, 150 minutes exposure
# topoisomerase-II = conditions: in vitro, cited from earlier work
# [4] = Etoposide area under the curve after intra-peritoneal treatment; type: in vivo; conditions: own experiments, data unpublished
# Method: Following intra-peritoneal treatment with etoposide, approximately 95% of the total etoposide area under the curve is covered within 150 minutes after administration (own experiments, data unpublished). […] Ehrlich Ascites tumour cells were incubated in etoposide or dexrazoxane for 30 minutes before irradiation, and then allowed further 120 minutes post-irradiation drug incubation, resulting in a total duration of exposure of 150 minutes.
# [5] = Brain and tumour uptake using tritiated etoposide; type: in vivo, mice; conditions: ten minutes after ip administration
# Method: Tritium-labelled etoposide was mixed with either “cold” etoposide 9.0 mg/ml, “cold” etoposide 0.9 mg/ml or isotonic saline, all in a final volume of 200 uL. Ten minutes after the administration mice were anaesthetized by CO2, blood was collected and plasma was separated. […] Tumour and unaffected contra-lateral brain were removed under a surgical microscope, weighed and sonicated. Activity was measured in a liquid scintillation counter from Packard (US), and counts/gram in brain and tumour was compared to concurrent plasma values.
# as §1
# topoisomerase II = conditions: cited from earlier work
# [6] = tested on: brain metastasis from SCLC; conditions: cited from earlier work
# [7] = concurrent teniposide and WBRT, phase III trial
smiles,measurement,setting,value
Cc1cc(-c2ccc(/N=N/c3ccc4c(S(=O)(=O)[O-])cc(S(=O)(=O)[O-])c(N)c4c3O)c(C)c2)ccc1/N=N/c1ccc2c(S(=O)(=O)[O-])cc(S(=O)(=O)[O-])c(N)c2c1O.[Na+].[Na+].[Na+].[Na+] [Evans blue dye],Colouration of brain or tumour tissue after tail-vein administration,[1],no colouration of brain or tumour tissue
CN(C)c1ccc(C(=C2C=CC(=[N+](C)C)C=C2)c2c(O)c(S(=O)(=O)[O-])cc3cc(S(=O)(=O)[O-])ccc23)cc1.[Na+] [Lissamine Green],Colouration of brain or tumour tissue after tail-vein administration,[1],no colouration of brain or tumour tissue
"C[C@@H](CN1CC(=O)NC(=O)C1)N1CC(=O)NC(=O)C1 [dexrazoxane, (S)-(+)-1,2-Bis(3,5-dioxopiperazin-1-yl)propane]",Survival after drug alone,[2]; dexrazoxane 125 mg/kg alone,increased survival a little
same,Effect on survival in combination with radiotherapy,[2]; dexrazoxane 125 mg/kg and concurrent 10 Gy,neither dexrazoxane 125 mg/kg (FIG. 1D) nor solvent affected survival in combination with radiotherapy
same,"Difference in survival, days lost from ineffective treatment (Eq. 3)","[2]; dexrazoxane 125 mg/kg ip alone, compared to radiotherapy",5 days
same,Toxicity of drug alone in clonogenic survival,[3]; dexrazoxane alone,non-toxic
same,Radio-enhancing effect in clonogenic survival,"[3]; fixed doses of dexrazoxane 25 μM or 125 μM, increasing radiotherapy doses",no radio-enhancing effect; also recorded: no effect at all
same,Effect on toxicity from etoposide in clonogenic assay,topoisomerase-II,antagonises toxicity from etoposide
same,Formation of DNA strand breaks induced by topoisomerase-II poisons,topoisomerase-II,inhibits the formation of DNA strand breaks
"COc1cc([C@@H]2c3cc4c(cc3[C@@H](O[C@@H]3O[C@@H]5CO[C@@H](C)O[C@H]5[C@H](O)[C@H]3O)[C@H]3COC(=O)[C@H]23)OCO4)cc(OC)c1O [etoposide, 9-[[4,6-O-(1R)-ethylidene-β-D-glucopyranosyl]oxy]-5,8,8a,9-tetrahydro-5-(4-hydroxy-3,5-dimethoxyphenyl)-(5R,5aR,8aR,9S)-furo[3′,4′:6,7]naphtho[2,3-d]-1,3-dioxol-6(5aH)-one]",Survival after drug alone,[2]; etoposide 34 mg/kg alone,increased survival
same,Effect on survival from radiotherapy,[2]; etoposide 34 mg/kg and concurrent 10 Gy,did not enhance survival from radiotherapy
same,Share of total etoposide area under the curve covered within 150 minutes after administration,[4],approximately 95%
same,Interaction by combination index (Chou and Talalay),[3]; increasing concentrations of etoposide with radiotherapy,synergism
same,Cell-kill interaction of etoposide with radiotherapy,[3]; 1.25 Gy,did not result in an increased cell-kill
same,Cell-kill interaction of etoposide with radiotherapy,[3]; 7.5 Gy,synergistic cell-kill; also recorded: supra-additive cell-kill
same,Interaction by combination index (Chou and Talalay),[3]; lowest concentrations of etoposide with radiotherapy,antagonistic
same,"Influence of dose, vehicle or dexrazoxane pre-treatment on uptake in tumour",[5],no influence on uptake in tumour
same,Tumour drug uptake compared to brain,[5],"higher than in brain, but statistically insignificant, except after treatment with the low dose of etoposide"
same,Brain/plasma ratio of 3H-etoposide,[5]; etoposide dose-escalation or dexrazoxane 125 mg/kg pre-treatment,Neither etoposide dose-escalation nor pre-treatment with dexrazoxane altered the brain/plasma ratio
same,Cell-kill of etoposide in combination with radiotherapy,topoisomerase-II; literature,synergistic cell-kill
COc1cc([C@@H]2c3cc4c(cc3[C@@H](O[C@@H]3O[C@@H]5CO[C@@H](c6cccs6)O[C@H]5[C@H](O)[C@H]3O)[C@H]3COC(=O)[C@H]23)OCO4)cc(OC)c1O [teniposide],Potency relative to VP-16,topoisomerase II,about 10 fold
same,Time to cerebral progression,[6]; concurrent teniposide and WBRT versus teniposide alone,significantly increased
same,Median survival,[6]; [7],3.5 months
same,Response rate,[6]; [7],57%
same,Response rate,"[6]; teniposide 150 mg/m^2 day 1, 3 and 5, alone, phase II",33%
same,Median survival,"[6]; teniposide alone, phase III trial",3.2 months
